Experimental findings from patent publication US11492347B2 (ENYO PHARMA, priority 2018, dated 2022) are described below.

This experiment has as its system H1N1 (influenza A/New Caledonia/20/99). Description: microbe, parasite or virus in culture. Format: cell-based. The conditions noted are these: H1N1, A549, 48 h.

Usually IC50 stands for the concentration that inhibits the measured activity by half. `COc1ccc(C(=O)Nc2sc3c(c2C(=O)O)CCC(C)(C)C3)nc1OC` [Compound #94, 2-[(5,6-Dimethoxypyridine-2-carbonyl)amino]-6,6-dimethyl-5,7-dihydro-4H-benzothiophene-3-carboxylic acid]: the midpoint of inhibition, the IC50, lay at 660 nM.

Compound `CC1(C)CCc2c(sc(NC(=O)c3ccc(OC(F)(F)F)cc3)c2C(=O)O)C1` [Compound #24, 6,6-Dimethyl-2-[[4-(trifluoromethoxy)benzoyl]amino]-5,7-dihydro-4H-benzothiophene-3-carboxylic acid] showed an IC50 of 160 nM. Then `CC1(C)Cc2c(sc(NC(=O)c3ccc(N4CCOCC4)nc3)c2C(=O)O)C(C)(C)C1` [#201, 5,5,7,7-Tetramethyl-2-[(6-morpholinopyridine-3-carbonyl)amino]-4,6-dihydrobenzothiophene-3-carboxylic acid], with 150 nM; and `COc1ccc(C(=O)Nc2sc3c(c2C(=O)O)C(C)(C)CC3)cc1OC` [Compound #38, 2-[(3,4-Dimethoxybenzoyl)amino]-4,4-dimethyl-5,6-dihydrocyclopenta[b]thiophene-3-carboxylic acid], with 339 nM. Then `CC1(C)CCc2sc(NC(=O)c3cnc(N4CCOCC4)nc3)c(C(=O)O)c2C1` [#209, 5,5-Dimethyl-2-[(2-morpholinopyrimidine-5-carbonyl)amino]-6,7-dihydro-4H-benzothiophene-3-carboxylic acid], with 820 nM. On to `COc1ccc(C(=O)Nc2sc3c(c2C(=O)O)CCC2(CC2)C3)cc1OC` [Compound #30, 2-[(3,4-Dimethoxybenzoyl)amino]spiro[5,7-dihydro-4H-benzothiophene-6,1′-cyclopropane]-3-carboxylic acid], for which the midpoint of inhibition, the IC50, lay at 70 nM. For `CC1(C)CCCc2sc(NC(=O)c3ccccc3)c(C(=O)O)c21` [Compound #42, 2-Benzamido-4,4-dimethyl-6,7-dihydro-5H-benzothiophene-3-carboxylic acid], the half-inhibitory concentration (IC50) is 192 nM. Compound `COC1CC(N(C)c2ccc(C(=O)Nc3sc4c(c3C(=O)O)CC(C)(C)CC4(C)C)cc2)C1` (centres unmarked) [#165, 2-[[4-[(3-Methoxycyclobutyl)-methyl-amino]benzoyl]amino]-5,5,7,7-tetramethyl-4,6-dihydrobenzothiophene-3-carboxylic acid] displayed a concentration for half-maximal inhibition (IC50) of 11.7 nM. The same measure for `O=C(Nc1sc2c(c1C(=O)O)CCC1(CC1)C2)c1ccccc1` [Compound #29, 2-Benzamidospiro[5,7-dihydro-4H-benzothiophene-6,1′-cyclopropane]-3-carboxylic acid]: 90 nM; for `CC1(C)Cc2c(sc(NC(=O)c3ccc(N4CC(F)(F)C4)cc3)c2C(=O)O)C(C)(C)C1` [Compound #148, 2-[[4-(3,3-Difluoroazetidin-1-yl)benzoyl]amino]-5,5,7,7-tetramethyl-4,6-dihydrobenzothiophene-3-carboxylic acid]: 2.6 nM. `CC1CC(C)(C)Cc2sc(NC(=O)c3ccccc3)c(C(=O)O)c21` (centres unmarked) [Compound #44, 2-Benzamido-4,6,6-trimethyl-5,7-dihydro-4H-benzothiophene-3-carboxylic acid] had an IC50 of 90 nM.

Take `COc1ccc(C(=O)Nc2sc3c(c2C(=O)O)CCC(C)(C)C3)nc1` [Compound #25, 2-[(5-Methoxypyridine-2-carbonyl)amino]-6,6-dimethyl-5,7-dihydro-4H-benzothiophene-3-carboxylic acid]: the 50% inhibitory concentration (IC50) was 90 nM. On to `COCCOc1ccc(C(=O)Nc2sc3c(c2C(=O)O)CC(C)(C)CC3(C)C)cc1` [#168, 2-[[4-(2-Methoxyethoxy)benzoyl]amino]-5,5,7,7-tetramethyl-4,6-dihydrobenzothiophene-3-carboxylic acid], for which half-maximal inhibition (IC50) was put at 23.2 nM. The same measure for `CC1(C)Cc2c(sc(NC(=O)c3ccc(C4CCOCC4)cc3)c2C(=O)O)C(C)(C)C1` [#174, 5,5,7,7-Tetramethyl-2-[(4-tetrahydropyran-4-ylbenzoyl)amino]-4,6-dihydrobenzothiophene-3-carboxylic acid]: 39 nM.
